Source: patent US9580426B2, “Compounds that expand hematopoietic stem cells” (Novartis AG, priority 2008, dated 2017)

Tests used:
mPB and CB derived HSCs = experiment: Transplantation of cultured human CD34+ cells into NOD/SCID mice (engraftment); assay type: in vivo, human cells in NOD/SCID mice; conditions: HSCs cultured at 1 micromolar, mPB 4 days, CB 21 days
Experimental: Transplantation of human CD34^+ cells into NOD.CB 17-Prkdc^scid mice (NOD/SCID): To assess the in vivo repopulating capacity of CD34^+ cells and their cultured progeny, uncultured CD34^+ or the progenies of cultured CD34^+ cells after 4 days (mPB) or 21 days (CB) with vehicle or a test compound were injected intravenously via the retro-orbital route into sub-lethally irradiated (3.0 Gy) 8- to 10-week-old NOD/SCID (for mPB HSC experiments) or NOD/SCIDgc−/− (for CB HSC experiments) mice. To monitor engraftment blood was drawn weekly via the retro-orbital and treated with erythrocyte lysis solution (Qiagen, Valencia, Calif.) to remove red blood cells, washed with staining media, and analyzed by flow Cytometry. Engraftment was measured by detection of anti-human CD45^+ cells in the blood. The mice are sacrificed at 10 weeks post-transplantation; BM is collected from both femurs and tibiae. BM cells are washed in staining media and stained with anti-human antibodies. Following incubation, the suspension is treated with erythrocyte lysis solution (Qiagen, Valencia, Calif.) to remove red blood cells, washed with staining media, and analyzed by flow Cytometry, as described earlier.

CB CD34+ cells = experiment: Determination of CD34+ cell subsets by FACS; assay type: cell-based, human
Experimental: Surface Antigen Analysis: The cells are washed with staining media (Hanks balanced salt solution containing FBS (2%) and EDTA (2 mM)) and stained (at 4° C. for 30 minutes) with indicated primary conjugated antibodies. The cells are washed in the previously described buffer and analyzed using a BD LSR II flow cytometer (Becton Dickinson, San Jose, Calif.). The cells are passed at a rate of up to 1000 cells/second using 488-nm argon and 633-nm HeNe laser beams as the light source for excitation. Emission of 10^4 cells is measured using logarithmic amplification and analyzed using FlowJo software (TreeStar Inc. Ashland, Oreg.). Cells stained with primary conjugated isotype control antibodies are used to determine background fluorescence.
Determination of CD34^+ cell subsets: The percentages of CD34^+ cell subsets are determined from aliquots of the cell culture. Cells were stained with APC anti-Thy1.1, PerCP anti-CD34, PECy7 anti CD45RA, FITC anti CD38, and PE anti-CD133 for determination of CD34^+Thy1.1^+, CD34^+CD45RA^−, CD34^+CD38^−, CD133^+CD38^− and CD34^+CD133^+ cells. Antibodies to CD34, CD38, Thy1.1 and CD45RA were purchased from Becton Dickinson and antibodies to CD133 were purchased Miltenyi Biotec. FACS analysis results of these subsets are given as percentage of the total population. The absolute number of each population of cells in the culture is calculated from the total number of cells multiplied by the percentage of each population. Starting with CB CD34+ cell, after five weeks the total cell number in the cultures increased on average greater than 2-fold in the 4-(2-(2-(benzo[b]thiophen-3-yl)-9-isopropyl-9H-purin-6-ylamino)ethyl)phenol (compound 1, table 1; example 1) 1 micromolar treated cells compared to control cultures. More importantly, >50% of 4-(2-(2-(benzo[b]thiophen-3-yl)-9-isopropyl-9H-purin-6-ylamino)ethyl)phenol (compound 1, table 1; example 1) cultured cells were CD34^+ compared to <10% of vehicle cultured cells resulting in a greater than 10-fold expansion of CD34^+ cells compared to control and a greater than 10.000-fold expansion compared to input cells. In addition, the presence of 1 micromolar 4-(2-(2-(benzo[b]thiophen-3-yl)-9-isopropyl-9H-purin-6-ylamino)ethyl)phenol (compound 1, table 1; example 1) increased both the percentage and total numbers of the CD34^+ subpopulations, CD34^+CD45RA^−, CD34^+CD38^−, CD133^+CD38^−, and CD34^+CD133^+ resulting in a net expansion of greater than 30-fold for each subset.

AHR = biological target: T1, AHR (Mus musculus, UniProt P30561); experiment: Dioxin induced AHR dependent transcription, murine cells; assay type: cell-based
T1 construct: endogenous in cells; host or cells: unnamed murine cells
T1 sequence (P30561 10-848): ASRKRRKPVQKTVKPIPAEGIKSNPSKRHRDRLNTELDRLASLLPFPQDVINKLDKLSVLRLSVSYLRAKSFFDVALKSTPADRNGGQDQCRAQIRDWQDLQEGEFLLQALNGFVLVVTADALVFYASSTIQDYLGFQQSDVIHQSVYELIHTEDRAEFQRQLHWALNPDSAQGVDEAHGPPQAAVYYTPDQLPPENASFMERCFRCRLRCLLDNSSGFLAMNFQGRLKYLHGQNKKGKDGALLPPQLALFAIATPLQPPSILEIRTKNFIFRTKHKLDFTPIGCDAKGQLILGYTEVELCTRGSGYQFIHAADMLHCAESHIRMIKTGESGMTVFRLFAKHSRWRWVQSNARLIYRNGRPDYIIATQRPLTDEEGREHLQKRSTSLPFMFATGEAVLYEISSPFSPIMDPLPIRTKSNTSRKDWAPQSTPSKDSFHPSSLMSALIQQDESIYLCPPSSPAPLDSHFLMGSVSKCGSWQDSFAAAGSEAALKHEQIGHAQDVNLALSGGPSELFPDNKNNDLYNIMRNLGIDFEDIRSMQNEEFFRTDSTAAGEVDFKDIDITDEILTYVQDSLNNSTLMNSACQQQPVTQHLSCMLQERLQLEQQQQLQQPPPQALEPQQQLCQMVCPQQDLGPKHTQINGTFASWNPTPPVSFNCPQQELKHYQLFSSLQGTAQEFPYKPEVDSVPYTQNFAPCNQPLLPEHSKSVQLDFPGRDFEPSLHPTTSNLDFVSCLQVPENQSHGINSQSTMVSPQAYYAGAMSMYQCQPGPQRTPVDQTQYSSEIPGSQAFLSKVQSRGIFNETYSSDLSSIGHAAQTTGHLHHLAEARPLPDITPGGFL
Experimental: Further, the ability of Example 1 to block 2,3,7,8-tetrachlorodibenzo-p-dioxin (TCDD, dioxin)-mediated CYP1B1 mRNA expression by qPCR in mPB-derived CD34^+ cells was determined. Treatment with TCDD (3 nM) caused a 4.5-fold increase in the level of CYP1B1 mRNA compared with the vehicle control (0.01% toluene). […] To determine the effects of Example 1 in AHR transcription the ability of Example 1 to inhibit a dioxin-induced AHR dependent luciferase reporter gene assay was tested.

In the case of `CC(C)n1cnc2c(NCCc3ccc(O)cc3)nc(-c3csc4ccccc34)nc21` [Example 1, 4-(2-(2-(benzo[b]thiophen-3-yl)-9-isopropyl-9H-purin-6-ylamino)ethyl)phenol], the “percentage of human cells 10 weeks after engraftment” value (mPB and CB derived HSCs) is reported as “statistically significant increase”, the “net expansion of each subset CD34+CD45RA-, CD34+CD38-, CD133+CD38-, CD34+CD133+” value (CB CD34+ cells; 1 micromolar) is reported as “greater than 30 fold” and the “increase of total cell number compared to control cultures” value (CB CD34+ cells; 1 micromolar, after five weeks) is reported as “greater than 2 fold”. The “expansion of CD34+ cells compared to control” value (CB CD34+ cells; five weeks) was “greater than 10 fold”, the “expansion of CD34+ cells compared to input cells” value (CB CD34+ cells; five weeks) was “greater than 10.000 fold” and the “percentage of cultured cells that were CD34+” value (CB CD34+ cells; five weeks, vehicle <10%) was greater than 50%. The “agonist activity (AHR dependent transcription)” value (AHR) was “only weak agonist activity” and the “inhibition of dioxin induced transcription” value (AHR) was “only weakly inhibited”.
